Data published in article PMC8373216, “Development and Preclinical Evaluation of New Inhaled Lipoglycopeptides for the Treatment of Persistent Pulmonary Methicillin-Resistant Staphylococcus aureus Infections” (Antimicrobial Agents and Chemotherapy, 2021).
Where two headings read alike, the source gives them in different places.

Key:
[1] = tested on: Streptococcus pyogenes; assay: Expanded panel broth microdilution MIC/MBC; assay type: cell-based; settings: for MIC: Streptococcus pyogenes
[2] = tested on: Clostridium. perfringens; assay: microbe, parasite or virus in culture; assay type: cell-based
[3] = tested on: Staphylococcus lugdunensis; assay: Expanded panel broth microdilution MIC; assay type: cell-based
[4] = tested on: MSSA ATCC 29213; assay: In-house broth microdilution MIC screening; assay type: cell-based; settings: Staphylococcus aureus; broth microdilution; read-out: MIC Value, MSSA ATCC 29213
[5] = tested on: Streptococcus mitis; assay: Expanded panel broth microdilution MIC/MBC; assay type: cell-based; settings: for MIC: Streptococcus mitis
[6] = tested on: S. aureus; assay: Expanded panel broth microdilution MIC/MBC; settings: for MIC: Staphylococcus aureus
[7] = tested on: Staphylococcus epidermidis; assay: Expanded panel broth microdilution MIC/MBC; assay type: cell-based; settings: for MIC: Staphylococcus epidermidis
[8] = tested on: Streptococcus agalactiae; assay: Expanded panel broth microdilution MIC/MBC; assay type: cell-based; settings: for MIC: Streptococcus agalactiae
[9] = tested on: Cutibacterium acnes; assay: Expanded panel broth microdilution MIC; assay type: cell-based
[10] = tested on: MRSA ATCC BAA 1556 (USA300); assay: In-house broth microdilution MIC screening; assay type: cell-based, Staphylococcus aureus
[11] = tested on: Streptococcus anginosus; assay: Expanded panel broth microdilution MIC/MBC; assay type: cell-based; settings: for MIC: Streptococcus anginosus, read-out: MIC
[12] = tested on: Streptococcus oralis; assay: Expanded panel broth microdilution MIC; assay type: cell-based
[13] = tested on: Eggerthella lenta; assay: Expanded panel broth microdilution MIC; assay type: cell-based
[14] = tested on: Staphylococcus hominis; assay: Expanded panel broth microdilution MIC; assay type: cell-based
[15] = tested on: MRSA ATCC BAA 1556 (USA300) biofilm; assay: MRSA biofilm killing, MBEC assay system, TSB with 1% human plasma; settings: MBEC
[16] = MRSA and MSSA isolates of Table 1

CCCCCCCCCCNC(=O)CNC1(C)CC(OC2C(Oc3c4cc5cc3Oc3ccc(cc3Cl)C(O)C3NC(=O)C(NC(=O)C5NC(=O)C(CC(N)=O)NC(=O)C(NC(=O)C(CC(C)C)NC)C(O)c5ccc(c(Cl)c5)O4)c4ccc(O)c(c4)-c4c(O)cc(O)cc4C(C(=O)O)NC3=O)OC(CO)C(O)C2O)OC(C)C1O (stereo not drawn) [RV94]
0.08 µg/mL: MIC ([6]; read-out: MIC (median), S. aureus hVISA, 2 isolates)
≥ 2 µg/mL: Concentrations with statistically significant reduction versus control biofilm ([15]; two-way ANOVA, Bonferroni)
~2 fold: MIC potency, fold less potent than RV40 [10, 16] | MIC potency, fold more potent than telavancin [10, 16]
0.008 µg/mL: MIC ([1]; S. pyogenes MMX 946, ermR, read-out: MIC) | MIC ([1]; S. pyogenes MMX 8778, read-out: MIC) | MIC ([1]; S. pyogenes ermR, 1 isolate, read-out: MIC) | MIC [2] | MIC ([2]; ATCC13124) | MIC ([5]; ATCC49456, S. mitis (MGS) ATCC 49456, read-out: MIC) | MIC ([5]; S. mitis (MGS) MMX 5798, read-out: MIC) | MIC ([5]; S. mitis MGS, 2 isolates, read-out: MIC (median)) | MIC ([8]; S. agalactiae MMX 4088, read-out: MIC) | MIC ([9]; ATCC6919, P. acnes ATCC 6919, read-out: MIC) | MIC ([9]; ATCC11827, P. acnes ATCC 11827, read-out: MIC) | MIC ([9]; C. acnes, 2 isolates, read-out: MIC (median)) | MIC ([13]; ATCC43055, E. lenta ATCC 43055, read-out: MIC) | MIC ([13]; E. lenta, 1 isolate, read-out: MIC)
0.06 µg/mL: MIC ([6]; NRS4 / VISA, S. aureus NRS4, VISA) | MIC ([6]; NRS52 / VISA, S. aureus NRS52, VISA)
0.023 µg/mL: MIC ([6]; MSSA, read-out: MIC (median), S. aureus MSSA, 4 isolates)
0.031 µg/mL: MIC [4] | MIC ([10]; Staphylococcus aureus, broth microdilution, read-out: MIC Value, MRSA ATCC BAA 1556)
4 µg/mL: MIC ([6]; VRSA, read-out: MIC (median), S. aureus VRSA, 12 isolates (JMI Laboratories))
approximately 30 fold: MIC potency, fold more potent than vancomycin [10, 16]
>8: MIC:MBC ([11]; S. anginosus AGS)
8: MIC:MBC ([6]; S. aureus MSSA, MBC on one organism) | MIC:MBC ([6]; S. aureus hVISA, MBC on one organism)
0.015 µg/mL: MIC ([1]; ATCC19615, S. pyogenes ATCC 19615, read-out: MIC) | MIC ([3]; S. lugdunensis, 1 isolate) | MIC ([3]; Staphylococcus lugdunensis, S. lugdunensis MMX 8724, read-out: MIC) | MIC ([6]; ATCC29213 / MSSA, S. aureus ATCC 29213, MSSA) | MIC ([6]; ATCC43300 / MRSA, S. aureus ATCC 43300, MRSA) | MIC ([6]; ATCCBAA1756|MRSA|NRS384|USA300, S. aureus NRS 384, ATCC BAA-1756, MRSA, USA300) | MIC ([6]; MRSA / NRS123 / USA400, S. aureus NRS123, MRSA, USA400) | MIC ([6]; MRSA / NRS725 / USA300, S. aureus NRS725, MRSA, USA300) | MIC ([6]; MRSA / USA300, S. aureus MMX 3982, MRSA, USA300) | MIC ([6]; MRSA, S. aureus MMX 7899, MRSA) | MIC ([6]; MRSA, S. aureus MMX 7900, MRSA) | MIC ([6]; MRSA, S. aureus MMX 7901, MRSA) | MIC ([6]; MRSA, S. aureus MMX 7903, MRSA) | MIC ([6]; MRSA, read-out: MIC (median), S. aureus MRSA, 12 isolates) | MIC ([6]; MSSA, S. aureus MMX 7908, MSSA) | MIC ([7]; ATCC49134, S. epidermidis ATCC 49134, MSSE, read-out: MIC) | MIC ([7]; MRSE, S. epidermidis MMX 5145, MRSE, read-out: MIC) | MIC ([7]; S. epidermidis MSSE, 1 isolate, read-out: MIC) | MIC ([11]; ATCC33397, S. anginosus (AGS) ATCC 33397) | MIC ([11]; S. anginosus AGS, 1 isolate) | MIC ([12]; S. oralis MGS, 1 isolate) | MIC ([12]; Streptococcus oralis, S. oralis (MGS) MMX 5821, read-out: MIC)
3 fold: MIC, fold activity reduction compared to RV40 ([6]; hVISA)
0.02 µg/mL: MIC ([8]; S. agalactiae, 2 isolates, read-out: MIC (median))
0.012 µg/mL: MIC ([1]; S. pyogenes, 2 isolates, read-out: MIC (median))
2: MIC:MBC ([6]; S. aureus VISA, MBC median of n = 2)
0.12 µg/mL: MIC ([6]; NRS13 / VISA, S. aureus NRS13, VISA) | MIC ([6]; NRS22 / VISA, S. aureus NRS22, VISA) | MIC ([6]; NRS23, S. aureus NRS23, hVISA) | MIC ([6]; VISA, read-out: MIC (median), S. aureus VISA, 5 isolates)
0.03 µg/mL: MIC ([6]; ATCC13709 / MSSA, S. aureus ATCC 13709, MSSA) | MIC ([6]; ATCCBAA1556|MRSA|USA300, S. aureus ATCC BAA-1556, MRSA, USA300 (expanded panel)) | MIC ([6]; MRSA, S. aureus MMX 7902, MRSA) | MIC ([6]; MSSA, S. aureus MMX 7907, MSSA) | MIC ([6]; NRS2, S. aureus NRS2, hVISA;Mu3) | MIC ([7]; MRSE, S. epidermidis MMX 762, MRSE, read-out: MIC) | MIC ([7]; MRSE, S. epidermidis MRSE, 2 isolates, read-out: MIC (median)) | MIC ([8]; ATCC13813, S. agalactiae ATCC 13813, read-out: MIC) | MIC ([14]; ATCC27844, S. hominis ATCC 27844, read-out: MIC) | MIC ([14]; S. hominis, 1 isolate, read-out: MIC)
30 fold: MIC, fold enhancement in comparison to vancomycin ([6]; VISA)
4: MIC:MBC ([8]; S. agalactiae, MBC on one organism)
18 fold: MIC, fold enhancement in comparison to vancomycin ([6]; hVISA)
1: MIC:MBC ([1]; S. pyogenes ermR) | MIC:MBC ([5]; S. mitis MGS, MBC on one organism) | MIC:MBC ([6]; S. aureus MRSA, MBC median of n = 5) | MIC:MBC ([7]; S. epidermidis MRSE, MBC on one organism)
0.25 µg/mL: MIC ([6]; NRS1 / VISA, S. aureus NRS1, VISA, Mu50)
0.004 µg/mL: MIC ([8]; S. agalactiae MMX 4115, ermR, read-out: MIC) | MIC ([8]; S. agalactiae ermR, 1 isolate, read-out: MIC)
2 fold: MIC, fold activity reduction compared to RV40 ([6]; VISA) | MIC, fold enhancement compared to telavancin ([6]; hVISA and VISA (both strains)) | Biofilm activity, fold more potent than vancomycin at the same dose ([15]; 16 μg/ml)
